In patent US10155769B2, “Fused azaheterocyclic compounds and their use as AMPA receptor modulators” (Janssen Pharmaceutica NV, priority 2016, dated 2018):

What follows are compounds tested against GluA1o-γ8 (Homo sapiens (Human), UniProt P42261+Q8WXS5) (assay: Calcium flux assay (FLIPR), inhibition of TARP γ8 dependent AMPA receptor activity). Details: HEK293 cells stably expressing GRIA1o-CACNG8 fusion construct; calcium flux following 15 μM glutamate; negative log of IC50 in molar.
Chain of GluA1o-γ8 (P42261 other isoform, or with tags, fused parts or gaps): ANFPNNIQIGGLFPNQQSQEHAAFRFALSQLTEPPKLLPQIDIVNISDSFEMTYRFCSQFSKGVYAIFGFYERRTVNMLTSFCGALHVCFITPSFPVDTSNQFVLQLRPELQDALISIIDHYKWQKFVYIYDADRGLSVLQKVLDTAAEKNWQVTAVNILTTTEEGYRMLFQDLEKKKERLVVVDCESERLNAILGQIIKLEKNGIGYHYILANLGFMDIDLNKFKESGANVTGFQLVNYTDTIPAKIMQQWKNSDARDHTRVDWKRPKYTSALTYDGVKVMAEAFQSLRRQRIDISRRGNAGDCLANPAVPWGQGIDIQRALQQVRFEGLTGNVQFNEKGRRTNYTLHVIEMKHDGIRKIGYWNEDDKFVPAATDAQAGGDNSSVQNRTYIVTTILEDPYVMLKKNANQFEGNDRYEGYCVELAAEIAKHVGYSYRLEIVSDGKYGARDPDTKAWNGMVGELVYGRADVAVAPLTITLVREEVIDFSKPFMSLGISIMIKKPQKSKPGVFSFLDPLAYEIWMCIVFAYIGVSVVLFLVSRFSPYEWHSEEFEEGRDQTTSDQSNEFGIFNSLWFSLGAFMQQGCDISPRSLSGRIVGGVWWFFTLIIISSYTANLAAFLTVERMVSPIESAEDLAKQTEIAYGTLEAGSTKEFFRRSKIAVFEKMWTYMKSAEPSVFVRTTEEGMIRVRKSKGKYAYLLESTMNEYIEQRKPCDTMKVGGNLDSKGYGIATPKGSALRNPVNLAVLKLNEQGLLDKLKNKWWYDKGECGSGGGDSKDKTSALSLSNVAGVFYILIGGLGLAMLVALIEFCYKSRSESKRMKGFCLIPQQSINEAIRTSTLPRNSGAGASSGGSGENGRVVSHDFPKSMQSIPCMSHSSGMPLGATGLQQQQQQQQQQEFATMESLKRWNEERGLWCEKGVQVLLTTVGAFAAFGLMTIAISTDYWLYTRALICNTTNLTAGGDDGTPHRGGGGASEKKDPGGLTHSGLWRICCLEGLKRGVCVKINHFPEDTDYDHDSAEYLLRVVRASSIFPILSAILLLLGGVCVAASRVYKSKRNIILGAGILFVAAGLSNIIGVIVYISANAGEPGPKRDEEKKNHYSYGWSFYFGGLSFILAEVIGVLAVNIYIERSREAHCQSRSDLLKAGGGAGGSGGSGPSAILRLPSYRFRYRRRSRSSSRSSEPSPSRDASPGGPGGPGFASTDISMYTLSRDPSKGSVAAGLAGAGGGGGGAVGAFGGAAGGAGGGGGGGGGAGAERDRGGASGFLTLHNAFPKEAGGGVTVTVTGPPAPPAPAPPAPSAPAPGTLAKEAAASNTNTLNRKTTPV
Type: cell-based
Text: This assay was used to test compounds for their ability to inhibit TARP γ8 dependent AMPA receptor activity. The AMPA receptor is a non-selective cation channel activated by glutamate. Ionotropic glutamate receptors normally desensitize too rapidly to allow detectable calcium influx in a FLIPR assay (Strange et al. (2006). “Functional characterisation of homomeric ionotropic glutamate receptors GluR1-GluR6 in a fluorescence-based high throughput screening assay.” Comb Chem High Throughput Screen 9(2): 147-158). But, this desensitization is incomplete, and a substantial steady-state current remains in the sustained presence of glutamate (Cho et al. (2007). “Two families of TARP isoforms that have distinct effects on the kinetic properties of AMPA receptors and synaptic currents.” Neuron 55(6): 890-904).
An in vitro assay was used to determine the potency of test compounds as inhibitors of the glutamate response of the channel formed by GluA1o-γ8. To ensure a 1:1 stoichiometry of GluA1o and γ8 subunits in the expressed channel, a fusion of the cDNAs for GRIA1o and CACNG8 was used. Following Shi et al (2009) “The stoichiometry of AMPA receptors and TARPs varies by neuronal cell type.” Neuron 62(5): 633-640), the C-terminus of the cDNA for GRIA1o was fused to the N-terminus of the cDNA for γ8. The linker sequence was QQQQQQQQQQEFAT. Channels expressed with this construct appear to have similar properties to channels formed by co-expression of GRIA1o with an excess of CACNG8 (Shi et al. 2009). A clonal cell line in HEK293 cells stably expressing this construct, with a geneticin selection marker, was generated for use in this assay.
Cell expressing the GRIA1o-CACNG8 fusion construct were grown in a monolayer in 96- or 384-well microtiter plates. They were washed with assay buffer (135 mM NaCl, 4 mM KCl, 3 mM CaCl2, 1 mM MgCl2, 5 mM glucose, 10 mM HEPES, pH 7.4, 300 mOs) using a Biotek EL405 plate washer. The cells were then loaded with a calcium-sensitive dye (Calcium-5 or Calcium-6, Molecular Devices) and the test compounds at a range of concentrations. Calcium flux following the addition of 15 μM glutamate was monitored using a Molecular Devices FLIPR Tetra.
The fluorescence in each well was normalized to the fluorescence of negative and positive control wells. The negative control wells had no added compounds, and the positive control wells had been incubated with 10 μM CP465022 (a non-subtype-selective AMPA receptor antagonist) (Lazzaro et al. (2002). “Functional characterization of CP-465,022, a selective, noncompetitive AMPA receptor antagonist.” Neuropharmacology 42(2): 143-153). The responses to glutamate as functions of the test compound concentrations were fitted to a four-parameter logistic function. The fitted parameter corresponding to the midpoint was taken to be the potency of inhibition of the compound. The data in Table 4 below illustrates the observed potency for the compounds described herein. pIC50 refers to the negative log of the IC50 in molar.
Work on `FC(F)c1nc2c(-c3cc(Cl)c4[nH]ncc4c3)c(C(F)(F)F)ccn2n1` [Example 1, 8-(7-Chloro-1H-indazol-5-yl)-2-(difluoromethyl)-7-(trifluoromethyl)-[1,2,4]triazolo[1,5-a]pyridine] yielded a pIC50 of 9.5. `Cc1cc(-c2c(Cl)ccn3nc(C(F)(F)F)nc23)cc2cn[nH]c12` [Example 2, 7-Chloro-8-(7-methyl-1H-indazol-5-yl)-2-(trifluoromethyl)-[1,2,4]triazolo[1,5-a]pyridine] gave a pIC50 of 8.5. Work on `O=c1[nH]c2ccc(-c3c(C(F)(F)F)ccn4nc(C(F)(F)F)nc34)cc2s1` [Example 3, 6-(2,7-Bis(trifluoromethyl)-[1,2,4]triazolo[1,5-a]pyridin-8-yl)benzo[d]thiazol-2(3H)-one] yielded a pIC50 of 8.1. In the case of `Cc1cc(-c2c(-c3ccc(F)cc3)ccn3nc(C4CCC4)nc23)cc2cn[nH]c12` [Example 4, 2-Cyclobutyl-7-(4-fluorophenyl)-8-(7-methyl-1H-indazol-5-yl)-[1,2,4]triazolo[1,5-a]pyridine], the pIC50 is reported as 10.6. Work on `O=c1[nH]c2ccc(-c3c(-c4ccc(F)cc4)ccn4nc(C(F)(F)F)nc34)cc2s1` [Example 5, 6-(7-(4-Fluorophenyl)-2-(trifluoromethyl)-[1,2,4]triazolo[1,5-a]pyridin-8-yl)benzo[d]thiazol-2(3H)-one] yielded a pIC50 of 9.6. With `Cc1cc(-c2c(C3CCCC3)ccn3nc(C(F)(F)F)nc23)cc2cn[nH]c12` [Example 6, 7-Cyclopentyl-8-(7-methyl-1H-indazol-5-yl)-2-(trifluoromethyl)-[1,2,4]triazolo[1,5-a]pyridine] the pIC50 was 10.1. With `Cc1cc(-c2c(N3CCC3)ccn3nc(C(F)(F)F)nc23)cc2cn[nH]c12` [Example 7, 7-(Azetidin-1-yl)-8-(7-methyl-1H-indazol-5-yl)-2-(trifluoromethyl)-[1,2,4]triazolo[1,5-a]pyridine] the pIC50 was 9.5. In the case of `Cc1cc(-c2c(N3CC(F)C3)ccn3nc(C(F)(F)F)nc23)cc2cn[nH]c12` [Example 8, 7-(3-Fluoroazetidin-1-yl)-8-(7-methyl-1H-indazol-5-yl)-2-(trifluoromethyl)-[1,2,4]triazolo[1,5-a]pyridine], the pIC50 is reported as 8.6. In the case of `Cc1cc(-c2c(-c3ccc(F)cc3)ccn3nc(C4CCCC4)nc23)cc2cn[nH]c12` [Example 9, 2-Cyclopentyl-7-(4-fluorophenyl)-8-(7-methyl-1H-indazol-5-yl)-[1,2,4]triazolo[1,5-a]pyridine], the pIC50 is reported as 10.8. `Cc1cc(-c2c(C#N)ccn3nc(C(F)(F)F)nc23)cc2cn[nH]c12` [Example 10, 8-(7-Methyl-1H-indazol-5-yl)-2-(trifluoromethyl)-[1,2,4]triazolo[1,5-a]pyridine-7-carbonitrile] was tested, and the pIC50 was 7.7. `Cc1cc(-c2c(C)ccn3cc(C(F)(F)F)nc23)cc2c1NC(=O)C2` [Example 11, 7-Methyl-5-[7-methyl-2-(trifluoromethyl)imidazo[1,2-a]pyridin-8-yl]indolin-2-one] gave an IC50 of 1 nM. In the case of `Fc1ccc(-c2ccn3cc(C(F)(F)F)nc3c2-c2ccc3[nH]ncc3c2)cc1` [Example 12, 5-(7-(4-Fluorophenyl)-2-(trifluoromethyl)imidazo[1,2-a]pyridin-8-yl)-1H-indazole], the IC50 is reported as 3.16 nM. `FC(F)(F)c1cn2cnc(C(F)(F)F)c(-c3cc(Cl)c4[nH]ncc4c3)c2n1` [Example 13, 8-(7-Chloro-1H-indazol-5-yl)-2,7-bis(trifluoromethyl)imidazo[1,2-c]pyrimidine] gave an IC50 of 0.316 nM. In the case of `FC(F)c1cn2cnc(C(F)(F)F)c(-c3cc(Cl)c4[nH]ncc4c3)c2n1` [Example 14, 8-(7-Chloro-1H-indazol-5-yl)-2-(difluoromethyl)-7-(trifluoromethyl)imidazo[1,2-c]pyrimidine], the IC50 is reported as 0.398 nM. In the case of `Cc1cc(-c2c(C(F)(F)F)ncn3cc(C(F)F)nc23)cc2cn[nH]c12` [Example 15, 2-(Difluoromethyl)-8-(7-methyl-1H-indazol-5-yl)-7-(trifluoromethyl)imidazo[1,2-c]pyrimidine], the IC50 is reported as 2 nM. Compound `Cc1cc(-c2c(C(F)(F)F)ccn3nc(C(F)F)nc23)cc2cn[nH]c12` [Example 16, 8-(7-Methyl-1H-indazol-5-yl)-2-(difluoromethyl)-7-(trifluoromethyl)-[1,2,4]triazolo[1,5-a]pyridine] has a pIC50 of 9.0. `O=C1Cc2cc(-c3c(C(F)(F)F)ccn4nc(C(F)F)nc34)cc(Cl)c2N1` [Example 17, 7-Chloro-5-(2-(difluoromethyl)-7-(trifluoromethyl)-[1,2,4]triazolo[1,5-a]pyridin-8-yl)indolin-2-one] was tested, and the pIC50 was 8.9. Compound `Cc1cc(-c2c(C(F)(F)F)ccn3nc(C(F)F)nc23)cc2c1NC(=O)C2` [Example 18, 7-Methyl-5-(2-(difluoromethyl)-7-(trifluoromethyl)-[1,2,4]triazolo[1,5-a]pyridin-8-yl)indolin-2-one] has a pIC50 of 8.6. In the case of `FC(F)(F)c1nc2c(-c3cc(Cl)c4[nH]ncc4c3)c(C(F)(F)F)ccn2n1` [Example 19, 8-(7-Chloro-1H-indazol-5-yl)-2,7-bis(trifluoromethyl)-[1,2,4]triazolo[1,5-a]pyridine], the pIC50 is reported as 9.6. `Cc1cc(-c2c(C(F)(F)F)ccn3nc(C(F)(F)F)nc23)cc2cn[nH]c12` [Example 20, 8-(7-Methyl-1H-indazol-5-yl)-2,7-bis(trifluoromethyl)-[1,2,4]triazolo[1,5-a]pyridine] gave a pIC50 of 9.3. In the case of `O=C1Cc2cc(-c3c(C(F)(F)F)ccn4nc(C(F)(F)F)nc34)cc(Cl)c2N1` [Example 21, 5-(2,7-Bis(trifluoromethyl)-[1,2,4]triazolo[1,5-a]pyridin-8-yl)-7-chloroindolin-2-one], the pIC50 is reported as 9.5. `Cc1cc(-c2c(C(F)(F)F)ccn3nc(C(F)(F)F)nc23)cc2c1NC(=O)C2` [Example 22, 5-(2,7-Bis(trifluoromethyl)-[1,2,4]triazolo[1,5-a]pyridin-8-yl)-7-methylindolin-2-one] was tested, and the pIC50 was 9.1. In the case of `FC(F)c1ccn2nc(C(F)(F)F)nc2c1-c1cc(Cl)c2[nH]ncc2c1` [Example 23, 8-(7-Chloro-1H-indazol-5-yl)-7-(difluoromethyl)-2-(trifluoromethyl)-[1,2,4]triazolo[1,5-a]pyridine], the pIC50 is reported as 9.4. Work on `Cc1cc(-c2c(C(F)F)ccn3nc(C(F)(F)F)nc23)cc2cn[nH]c12` [Example 24, 8-(7-Methyl-1H-indazol-5-yl)-7-(difluoromethyl)-2-(trifluoromethyl)-[1,2,4]triazolo[1,5-a]pyridine] yielded a pIC50 of 9.2. Compound `O=C1Cc2cc(-c3c(C(F)F)ccn4nc(C(F)(F)F)nc34)cc(Cl)c2N1` [Example 25, 7-Chloro-5-(7-(difluoromethyl)-2-(trifluoromethyl)-[1,2,4]triazolo[1,5-a]pyridin-8-yl)indolin-2-one] has a pIC50 of 9.2. Compound `Cc1cc(-c2c(C(F)F)ccn3nc(C(F)(F)F)nc23)cc2c1NC(=O)C2` [Example 26, 7-Methyl-5-(7-(difluoromethyl)-2-(trifluoromethyl)-[1,2,4]triazolo[1,5-a]pyridin-8-yl)indolin-2-one] has a pIC50 of 9.0. Work on `Cc1ccn2nc(C(F)(F)F)nc2c1-c1cc(C)c2[nH]ncc2c1` [Example 27, 7-Methyl-8-(7-methyl-1H-indazol-5-yl)-2-(trifluoromethyl)-[1,2,4]triazolo[1,5-a]pyridine] yielded a pIC50 of 8.4. `CCc1ccn2nc(C(F)(F)F)nc2c1-c1cc(C)c2[nH]ncc2c1` [Example 28, 7-Ethyl-8-(7-methyl-1H-indazol-5-yl)-2-(trifluoromethyl)-[1,2,4]triazolo[1,5-a]pyridine] gave a pIC50 of 9.1.
